# From patent publication US5358955A, “Aryl and heteroarylmethoxyphenyl inhibitors of leukotriene biosynthesis” (Abbott Laboratories, priority 1993, dated 1994)
# System: Stimulated LTB4 Formation in Human Polymorphonuclear Leukocytes
# Assay: Inhibition of calcium ionophore-stimulated LTB4 formation in human polymorphonuclear leukocytes (PMNL)
# Format: cell-based
# Conditions: at ~0.095 μmol, calcium ionophore 8.3 μM
# Experimental: Inhibition of leukotriene biosynthesis was evaluated in an assay involving calcium ionophore-induced LTB4 expressed in human polymorphornuclear leukocytes (PMNL). Human PMNL isolated from heparinized (20 USP units/mL) venous blood (25 mL) obtained from healthy volunteers was layered over an equal volume of Ficoll-Hypaque Mono-Poly Resolving Medium (ICN Flow, Costa Mesa, CA) and centrifugated at 400 × g for 40 min at 20° C. The PMNL was collected, erythrocytes lysed and washed 2× and suspended at 1.0×10^7 cells/mL in Earle's balanced salt solution with 17 mM Earle's HEPES. Aliquots of the cell suspension were preincubated with test compounds dissolved in DMSO (final concentration <2%) for 15 min. and stimulated with calcium ionophore (final concentration 8.3 μM) for 10 min. at 37° C. Incubations were stopped with the addition of two volumes of ice-cold methanol followed by centrifuging the cell suspensions at 4° C. for 10 min at 450×g. The amount of LTB4 in the methanol extract was analyzed by enzyme-linked linked immunoassay or by HPLC analysis.
row,SMILES,"% Inhibition, Stimulated LTB4 Formation in Human Polymorphonuclear Leukocytes"
1,"CN(O)C(=O)CSC(CCCc1ccc(Cl)cc1)c1ccc(OCc2ccc3ccccc3n2)cc1 (stereo not drawn) [Example 1, {[4-(4-Chlorophenyl)-1-(4-[2-quinolinylmethoxy]phenyl)butyl]thio}acetic acid (N-hydroxy-N-methyl)amide]",63%

# Same assay, conditions: calcium ionophore 8.3 μM.3 μM, 15 min preincubation, 37° C, read-out: IC50, In Vitro Inhibitory Potencies Against Stimulated LTB4 Formation in Human Polymorphonuclear Leukocytes
row,SMILES,IC50
1,"CNOC(=O)C(CC1CCCCC1)c1ccc(OCc2ccc3ccccc3n2)cc1 (stereo not drawn) [Example 13, N-Methyl-O-{3-cyclohexyl-2-[4-(quinolin-2-yl-methoxy)phenyl]-propionyl}-hydroxylamine]",68 nM
2,CN(C)OC(=O)C(CC1CCCCC1)c1ccc(OCc2ccc3ccccc3n2)cc1 (stereo not drawn) [Example 17],45 nM
3,"CN(O)C(=O)C=NOC(CCCc1ccc(Cl)cc1)c1ccc(OCc2ccc3ccccc3n2)cc1 (stereo not drawn) [Example 6, {[4-(4-Chlorophenyl)-1-(4-[2-quinolinylmethoxy]phenyl)butyl]iminoxy}acetic acid N-hydroxy-N-methyl-amide]",132 nM
4,"CN(O)C(=O)C(CC1CCCCC1)c1ccc(OCc2ccc3ccccc3n2)cc1 (stereo not drawn) [Example 3, 3-Cyclohexyl-2-[4-(quinolin-2-yl-methoxy)phenyl]propionic acid (N-hydroxy-N-methyl)amide]",64 nM
5,"CNOC(=O)C(c1ccc(OCc2ccc3ccccc3n2)cc1)C1CCCCC1 (stereo not drawn) [Example 15, N-Methyl-O-{2-cyclohexyl-2-[4-(quinolin-2-yl-methoxy)phenyl]-acetyl}-hydroxylamine]",95 nM
6,"CN(O)C(=O)CON=C(CCCc1ccc(Cl)cc1)c1ccc(OCc2ccc3ccccc3n2)cc1 [Example 2, [(4-(4-Chlorophenyl)-1-(4-(2-quinolinylmethoxy)phenyl)butyl)oximino]acetic acid (N-hydroxy-N-methyl)amide]",66 nM
7,"CNOC(=O)C(CC1CCCCC1)c1ccc(OCc2ccccn2)cc1 (stereo not drawn) [Example 14, N-Methyl-O-{3-cyclohexyl-2-[4-(pyrid-2-yl-methoxy)phenyl]propionyl}-hydroxylamine]",1650 nM
8,"CN(O)C(=O)C(c1ccc(OCc2ccc3ccccc3n2)cc1)C1CCCCC1 (stereo not drawn) [Example 8, 2-Cyclohexyl-2-[4-(quinolin-2-yl-methoxy)phenyl]acetic acid N-hydroxy-N-methyl-amide]",33 nM
